“And” between values parts separate entries of the source, which are not always exact repeats. Identical values can stand only once.
Tests used:
[1] = test system: proliferating C2C12 mouse myoblast cells; experiment: cell viability by crystal violet staining; type: cell-based; settings: for cell viability (Fig. 2b source data): crystal violet, normalized to DMSO, single replicates; for reduction in cellular viability: proliferating C2C12 cells
Method: Cellular viability was tested in two cell types, human hepatocarcinoma HepG2 cells and proliferating C2C12 mouse myoblast cells.
Data are presented as mean ± SEM. Source data are available as a Source Data file.
The human hepatocellular carcinoma cell line, HepG2 cells (ATCC HB-8065), were cultured in 10% FBS 1% L-Glu MEM at 37 °C in a humidified atmosphere of 5% CO2. Prior to RNA extraction cells were treated with either DMSO or REV-ERB agonist for 24 h. The C2C12 proliferating mouse myoblast cells (ATCC, CRL-1772) were cultured in 10% FBS DMEM at 37 °C in a humidified atmosphere of 5% CO2. Prior to RNA extraction cells were treated with either DMSO or REV-ERB agonist for 24 h. […]
[…] Media was removed, and cells were incubated with 0.5% crystal violet solution for 20 min at room temperature with mild agitation. Cells were washed four times with tap water before being air drying overnight. Cells were incubated in methanol for 20 min with mild agitation. Absorbance was read at 570 nm, and readings were normalized to vehicle (DMSO) treated cells.

REV-ERBα LBD = target: T1, REV-ERBα LBD (Homo sapiens, UniProt P20393); experiment: scintillation proximity radioligand binding assay with 3H-STL1267; set-up: made in house; settings: SPA
T1 sequence (P20393 284-614 limits assumed): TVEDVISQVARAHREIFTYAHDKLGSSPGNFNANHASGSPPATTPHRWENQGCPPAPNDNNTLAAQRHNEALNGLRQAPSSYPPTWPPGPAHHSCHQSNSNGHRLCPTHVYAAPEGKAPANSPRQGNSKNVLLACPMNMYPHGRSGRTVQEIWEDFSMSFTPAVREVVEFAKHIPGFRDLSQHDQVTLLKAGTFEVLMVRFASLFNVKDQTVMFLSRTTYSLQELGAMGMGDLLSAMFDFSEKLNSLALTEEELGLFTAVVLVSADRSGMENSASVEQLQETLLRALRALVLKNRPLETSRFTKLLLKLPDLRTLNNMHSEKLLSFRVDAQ

BMAL1 in HepG2 cells = experiment: expression of BMAL1 by qPCR; type: cell-based, human; set-up: key: Bmal1 expression normalized to Ppia; settings: 5 μM, 24 h, single replicates (n = 4)
Description: We next determined whether STL1267 can regulate characterized REV-ERB modulated genes in cell lines expressing REV-ERB naturally. Five micromolar doses of both drugs were used in cell-based experiments from this point on. REV-ERB is an established component of the core molecular clock repressing the expression of core clock gene Bmal1[6],[27] as well as others[28],[29]. […] In skeletal muscle, REV-ERB agonism increases the expression of a wide variety of genes important in mitochondrial function.
The human hepatocellular carcinoma cell line, HepG2 cells (ATCC HB-8065), were cultured in 10% FBS 1% L-Glu MEM at 37 °C in a humidified atmosphere of 5% CO2. Prior to RNA extraction cells were treated with either DMSO or REV-ERB agonist for 24 h. The C2C12 proliferating mouse myoblast cells (ATCC, CRL-1772) were cultured in 10% FBS DMEM at 37 °C in a humidified atmosphere of 5% CO2. Prior to RNA extraction cells were treated with either DMSO or REV-ERB agonist for 24 h. Prior to crystal violet cytotoxicity assay, cells were treated with either DMSO or REV-ERB agonist for 48 h.
Mouse tissue was homogenized using a bullet blender. DNA/protein was removed by phase separation using BCP/chloroform. The supernatant (RNA containing fraction) was collected, and RNA was precipitated using isopropanol. The RNA pellets were washed with 75% ethanol and resolubilized in RNAse free water. […]

[2] = mouse liver microsome stability assay; type: in vitro ADME; settings: liver microsomes
Description: We thank the reviewers for the constructive comments, and we have responded to each of the […]
Overall, this is a commendable structure-function study on the transcriptional repressor, REV-ERBα. It includes the identification of an agonist that belongs to the non-heme class of small ligands. The study combines cell-based and in vitro, in vivo, and crystallographic analyses of the ligand-receptor molecular complex.
However, as a spring-board for therapeutic drug discovery, there are a few additional issues that may need to be clarified.
1. In the HEK293 2-hybrid assay, the ERB agonists are described as activators of transcription.
Perhaps, they would be more appropriately described as 'repressors'.
We have updated the manuscript to clarify this issue. In the original manuscript, we used the following to describe how the 2-hybrid assay switches agonists from repressors to activators to allow for better resolution of activity, “This format of the assay essentially functions as a mammalian 2-hybrid assay and detects REVERB agonists as activators of transcription effectively enhancing the sensitivity of such an assay from the typical one hybrid system that detects enhancement of transcriptional repression.” […]

[3] = test system: Bmal1 expression in liver; experiment: Bmal1 expression in liver after i.p. administration; type: in vivo, C57Bl/6 J mice; settings: mice, 50 mg/kg i.p., 12 h post administration, single animals

Structure (SMILES): Clc1nnc2ccc(Oc3ccccc3-c3ccccc3)nn12 [STL1267]
- cell viability (Fig. 2b source data) ([1]; C2C12, 1 uM): 92.0631 and 77.3068 and 87.5705 and 94.4131 and 98.2145 and 106.232 and 102.707
- cell viability (Fig. 2b source data) ([1]; C2C12, 2 uM): 85.9463 and 90.0242 and 93.8256 and 90.5771 and 97.5579 and 103.433 and 103.26 and 102.949
- cell viability (Fig. 2b source data) ([1]; C2C12, 5 uM): 92.9616 and 90.6808 and 91.0609 and 85.0824 and 101.498 and 105.679 and 104.435 and 94.6204
- cell viability (Fig. 2b source data) ([1]; C2C12, 10 uM): 88.9874 and 85.3588 and 77.2722 and 82.9397 and 90.0242 and 92.8925 and 94.5859 and 92.7197
- cell viability (Fig. 2b source data) ([1]; C2C12, 20 uM): 77.9634 and 78.8964 and 75.3024 and 82.4905 and 83.4236 and 81.9721 and 84.5985 and 90.5771
- reduction in cellular viability ([1]; 10 μM): ~ 10%
- reduction in cellular viability ([1]; 20 μM): ~ 20%
- Ki (REV-ERBα LBD; REV-ERBα LBD, read-out: Ki, displacement of 3H-STL1267): 160 nM
- potency relative to SR9009 in the radioligand binding assay (REV-ERBα LBD): 4.3 fold
- Bmal1 (Fig. 2c) expression (BMAL1 in HepG2 cells): attenuated the expression and 0.5800 and 0.6760 and 0.6148 and 0.7607
- half-life [2]: 34 min
- Bmal1 expression in liver [3]: effectively suppressed Bmal1 expression and 0.9475 and 0.6115 and 0.4288 and 0.62 and 0.8061 and 0.4099
